Like-named read-outs stand apart in the source and are kept apart here.
Legend:
[1] = test system: SOX17 (endoderm marker) in RUES2-GLR cells; experiment: DevTox GLR-Endo assay: increase in percent SOX17-positive cells (AEID 3093, Sox17_up); type: cell-based, human; details: for Emax: Homo sapiens; for HIT−CALL: tcpl plot AEID3093, COFF 20.3
Method: (§1) The total test chemical incubation period was 48 h.
(§2) (Supplementary Materials).

[2] = test system: BRA (mesoderm marker) in RUES2-GLR cells; experiment: DevTox GLR-Endo assay: increase in percent BRA-positive cells (AEID 3096, Bra_up); type: cell-based, human; details: for HIT−CALL: tcpl plot AEID3096, COFF 0.774; for MAX_MEAN: tcpl plot AEID3096, maximum mean response; for MAX_MED: tcpl plot AEID3096, maximum median response
Method: as §1, §2

[3] = cited from earlier work; for Development Toxicant Classification: Table S2; for Classification: developmental toxicant classification (Teratogen / Non-Teratogen) of reference and training chemicals, ref DOI per chemical: 10.1093/toxsci/kft239, 10.1093/toxsci/kfaa014, 10.1177/026119290203000204, 10.1038/s41598-020-59542-x; for DT Class.: developmental toxicant classification; for Developmental Toxicant Classification: reference chemicals
RUES2-GLR cells = experiment: DevTox GLR-Endo assay: decrease in total cell count, cytotoxicity (AEID 3098, CellCount_dn); details: for Emax: Homo sapiens, read-out: Cell Count % Max Inhibition; for effect on cell counts (in words): reference chemical testing, increasing concentrations
Method: as §1
(§3) Assay plate controls included non-differentiated pluripotent cells maintained in complete Essential 8 Flex medium (baseline control), endoderm differentiated cells (differentiation control), endoderm differentiated cells treated with DMSO (0.2%) (solvent control), and TGF-ß receptor inhibitor SB431542 (1 µM)-treated cells (developmental toxicant-positive control) (Figure S3). All experiments were completed with a minimum of four biological replicates (n = 4).
as §2

[4] = test system: SOX2 (ectoderm and pluripotency marker) in RUES2-GLR cells; experiment: DevTox GLR-Endo assay: increase in percent SOX2-positive cells (AEID 3095, Sox2_up); details: for MAX_MEAN: tcpl plot AEID3095, maximum mean response; for MAX_MED: tcpl plot AEID3095, maximum median response; for AC50 / Emax: Homo sapiens; for AC50: read-out: ga (winning model); for Emax: read-out: tp (winning model);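 as to all read-outs here: cells exposed to test chemicals for 48 h in total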
[5] = test system: SOX17 (endoderm marker) in RUES2-GLR cells; experiment: DevTox GLR-Endo assay: decrease in percent SOX17-positive cells (AEID 3094, Sox17_dn); details: for Emax / AC50 / IC50: Homo sapiens; for DevTox-GLR Endo ACC: activity concentration at cutoff, SOX17-positive cells; for effect on SOX17-positive cells (in words): 48 h exposure during directed endoderm differentiation; for % Max Inhibition: maximum inhibition of SOX17-positive cells, reference chemical testing
Method: as §1, §3, §2

H9 human ESC line = details: cited from earlier work
in vitro = details: human
Method: as §1, §3, §2

[6] = tcpl plot AEID3093, maximum mean response, read-out: MAX_MEAN
[7] = tcpl plot AEID3093, maximum median response, read-out: MAX_MED
[8] = chemicals common with quickPredict
[9] = read-out: DevTox % Max Inhibition
[10] = read-out: ga (winning model), tcpl plot AEID3094, gain parameter of winning curve fit (log concentration, µM axis), hit calls only (converted)
[11] = Table S2, SOX17-positive cells, cutoff 3*bmad
[12] = Table S2, percent SOX17-positive cells, 48 h exposure
[13] = DevTox GLR-Endo prediction against developmental toxicant classification
[14] = read-out: maximum observed effect level class (% max inhibition)
[15] = cytotoxicity half-maximal concentration
[16] = 48 h, read-out: DevTox-GLR Endo AC50 (µM), SOX17 half-maximal activity concentration, 48 h exposure

SMILES | Emax [1, 6] [%] | Emax [1, 7] [%] | HIT−CALL [1] | HIT−CALL [2] | MAX_MEAN [2] [Percent Activity] | MAX_MED [2] [Percent Activity] | Development Toxicant Classification [3] | Classification [3] | DT Class. [3, 8] | Emax (RUES2-GLR cells) [%] | MAX_MEAN [4] [Percent Activity] | MAX_MED [4] [Percent Activity] | Emax [5, 9] [%] | Emax ([5]; read-out: MAX_MEAN) [%] | Emax ([5]; read-out: MAX_MED) [%] | AC50 [5, 10] [µM] | Emax ([5]; read-out: tp (winning model)) [%] | Hit Call [5, 11] | DevTox ACC [5, 12] [µM] | HIT−CALL ([5]; tcpl plot AEID3094, COFF 20.3) | other results
O=C1NC(=O)C(c2ccccc2)(c2ccccc2)N1 | 11.2 | 11.7 | 0 | 0 | 0.943 | 0.909 | Positive | Teratogen | Pos | 22.6 | 0.502 | 0.532 | 21 | 19.1 | 21 | 191 | 32.6 | Positive | 201.562 | 1 | Cell Count ACC (RUES2-GLR cells; human, 48 h): 191.824 µM; DevTox-GLR Endo CC (RUES2-GLR cells; human, 48 h): 191.82 µM; DevTox-GLR Endo ACC ([5]; 48 h exposure): 201.56 µM
OB(O)O [Boric acid] | – | – | 0 | 0 | 0.818 | 0.83 | – | Teratogen | Pos | – | 0.45 | 0.453 | – | – | – | – | – | Negative | >200 | 0 | MAX_MEAN ([1]; tcpl plot AEID3093, maximum mean response): 7.53 Percent Activity; MAX_MED ([1]; tcpl plot AEID3093, maximum median response): 7.06 Percent Activity; Cell Count % Max Inhibition (RUES2-GLR cells; Table S2, cell count relative to DMSO): 12.3286%; hit call designation (in words) [5, 13]: false negative; DevTox % Max Inhibition ([5]; Table S2, percent SOX17-positive cells relative to DMSO): 16.7249%; maximum observed effect level class (% max inhibition) ([5]; stratification of training set chemicals): weak (weak (0–20% max inhibition)); MAX_MEAN ([5]; tcpl plot AEID3094, maximum mean response): 15.7 Percent Activity; MAX_MED ([5]; tcpl plot AEID3094, maximum median response): 16.7 Percent Activity
CC1=C2C[C@H]3[C@@H](CC=C4C[C@@H](O)CC[C@@]43C)[C@@H]2CC[C@]12O[C@@H]1C[C@H](C)CN[C@H]1[C@H]2C [Cyclopamine] | – | – | 0 | 1 | 4.76 | 1.9 | Positive | Teratogen | Pos | 9.2 | 5.31 | 0.885 | 22.7 | 34.8 | 22.7 | – | – | Negative | >200 | 0 | Emax ([1]; read-out: MAX_MEAN): 3.34%; Emax ([1]; read-out: MAX_MED): 3.36%; Cell Count ACC (RUES2-GLR cells; Table S2, 48 h exposure): >200 µM; HIT−CALL [4]: 0; hit call designation (in words) [5, 13]: borderline calls; Emax [5, 14]: 20 to 80%
O=P1(N(CCCl)CCCl)NCCCO1 (stereo not drawn) [Cyclophosphamide] | – | – | 0 | 0 | 0.871 | 0.897 | Positive | Teratogen | Pos | 25.6 | 0.952 | 0.491 | 7.49 | 6.4 | 7.49 | – | – | – | – | – | Emax ([1]; read-out: MAX_MEAN): 8.69%; Emax ([1]; read-out: MAX_MED): 8.98%; Cell Count ACC (RUES2-GLR cells; human): 100.193 µM; DevTox-GLR Endo CC (RUES2-GLR cells; human): 100.19 µM; effect on cell count (in words) (RUES2-GLR cells; human): significant cell loss that did not impact SOX17-positive populations; DevTox ACC [5]: >200 µM; HIT−CALL [5]: 0; Hit Call [5]: Negative; hit call designation (in words) [5]: false negative; Emax [5, 14]: 0 to 20%
CC/C(=C(/CC)c1ccc(O)cc1)c1ccc(O)cc1 [Diethylstilbestrol] | 6.93 | 6.73 | 0 | – | – | – | Positive | Teratogen | Pos | 95.7 | 6.09 | 4.84 | 101 | 101 | 101 | 0.644 | 101 | Positive | – | 1 | hPST TC50 (H9 human ESC line; [15]): 4.4 µM; hPST TC50 (H9 human ESC line; hPST cytotoxicity): 4.4 µM; DT Class. ([3]; chemicals common with hPST): Pos; Cell Count ACC (RUES2-GLR cells; human, 48 h): 0.5959 µM; DevTox-GLR Endo CC (RUES2-GLR cells; human, 48 h): 0.60 µM; CC50 at 48 h (in vitro): 0.71 µM; AC50 [4]: 2.13 µM; Emax [4]: 3.84%; AC50 [5, 16]: 0.64 µM; DevTox-GLR Endo ACC ([5]; 48 h exposure): 0.54 µM
COc1cc2ncnc(Nc3ccc(F)c(Cl)c3)c2cc1OCCCN1CCOCC1 [Gefitinib] | 10.5 | 7.83 | 0 | – | – | – | – | – | – | – | 5.99 | 4.85 | – | 102 | 101 | 5.75 | 101 | – | 4.584 | – | hPST TC50 (H9 human ESC line; [15]): 10 µM; hPST TC50 (H9 human ESC line; hPST cytotoxicity): 10 µM; Cell Count ACC (RUES2-GLR cells; human, 48 h): 5.08 µM; CC50 at 48 h (in vitro): 6.6 µM; AC50 [4]: 6.35 µM; Emax [4]: 3.17%; AC50 [5, 16]: 5.75 µM
NNC(=O)c1ccncc1 [Isoniazid] | 14 | 13.9 | 0 | 0 | 0.794 | 0.781 | Negative | Non-Teratogen | Neg | 7.42 | 0.685 | 0.538 | 3.99 | 3.77 | 3.99 | – | – | Negative | >200 | 0 | Cell Count ACC (RUES2-GLR cells; human, 48 h): >200 µM
Nc1cccc2c1CN(C1CCC(=O)NC1=O)C2=O (stereo not drawn) [Lenalidomide] | 10.3 | 9.38 | 0 | 0 | 0.843 | 0.842 | Positive | Teratogen | – | 44.2 | 0.674 | 0.697 | 78.9 | 78.8 | 78.9 | 0.337 | 79.2 | Positive | 0.05026 | 1 | Developmental Toxicant Classification [3]: Positive; Cell Count ACC (RUES2-GLR cells; Table S2, 48 h exposure): 0.1174 µM; effect on cell counts (in words) (RUES2-GLR cells): cell counts remained constant; effect on SOX17-positive cells (in words) [5]: significant reductions in the SOX17-positive sub-population; IC50 ([5]; 48 h): 0.13 µM; % Max Inhibition ([5]; 48 h exposure): 44%
Nc1cccc2c1C(=O)N(C1CCC(=O)NC1=O)C2=O (stereo not drawn) [Pomalidomide] | 8.72 | 7.3 | 0 | 0 | 0.865 | 0.894 | Positive | Teratogen | – | 37.2 | 62.1 | 67.4 | 95.9 | 95.3 | 95.9 | 0.0661 | 94 | Positive | 0.01911 | 1 | Developmental Toxicant Classification [3]: Positive; Cell Count ACC (RUES2-GLR cells; Table S2, 48 h exposure): 0.27 µM; effect on cell counts (in words) (RUES2-GLR cells): cell counts remained constant; AC50 [4]: 148 µM; Emax [4]: 88.9%; effect on SOX17-positive cells (in words) [5]: significant reductions in the SOX17-positive sub-population; IC50 ([5]; 48 h): 0.05 µM; % Max Inhibition ([5]; 48 h exposure): 81%

— PMC9321663, “The DevTox Germ Layer Reporter Platform: An Assay Adaptation of the Human Pluripotent Stem Cell Test” (Toxics, 2022)
